Measurements taken from ChEMBL document CHEMBL1201862, “PubChem BioAssay data set” (2004).
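Step 1: Grow cells in 96-well plates. Step 2: Expose to compound for 48 hours at 5 concentrations. Step 3: Interpolate endpoints linearly; if unreached, use highest concentration. Abbreviation: GI50, concentration required for 50% inhibition of growth.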 The source made the active and inactive calls. Cut-off read from the data, not from the text of the source: active = GI50 up to about 1.1 µM and inactive = higher.

Columns and labels:
Assay in all cases: growth of human tumour cells (NCI), 48 h
MOLT-4 = system: MOLT-4
Malme-3M = system: Malme-3M
LOX IMVI = system: LOX IMVI
EKVX = system: EKVX
RXF 393 = system: RXF 393
OVCAR-5 = system: OVCAR-5
COLO 205 = system: COLO 205
SF-268 = system: SF-268
786-0 = system: 786-0
SK-MEL-2 = system: SK-MEL-2
M14 = system: M14
NCI-H460 = system: NCI-H460
HL-60 = system: HL-60
SF-539 = system: SF-539
OVCAR-4 = system: OVCAR-4
NCI/ADR-RES = system: NCI/ADR-RES
MCF7 = system: MCF7
DU-145 = system: DU-145
MDA-N = system: MDA-N
BT-549 = system: BT-549

Compound	GI50 (MOLT-4)	GI50 (Malme-3M)	GI50 (LOX IMVI)	GI50 (EKVX)	GI50 (RXF 393)	GI50 (OVCAR-5)	GI50 (COLO 205)	GI50 (SF-268)	GI50 (786-0)	GI50 (SK-MEL-2)	GI50 (M14)	GI50 (NCI-H460)	GI50 (HL-60)	GI50 (SF-539)	GI50 (OVCAR-4)	GI50 (NCI/ADR-RES)	GI50 (MCF7)	GI50 (DU-145)	GI50 (MDA-N)	GI50 (BT-549)
COc1ccc(C2CCC(Cl)(OC)CC2C=O)cc1 (stereo not drawn)	47.5 µM (inactive)	44.9 µM (inactive)	13.3 µM (inactive)	> 100 µM (inactive)	0.128 µM (active)	> 100 µM (inactive)	> 100 µM (inactive)	21.9 µM (inactive)	45 µM (inactive)	21.9 µM (inactive)	40.1 µM (inactive)	> 100 µM (inactive)	69.5 µM (inactive)	56.4 µM (inactive)	> 100 µM (inactive)					
NC1=C(N2CCOCC2)C(=O)NC2=N/C(=C\c3ccccc3O)C(=O)N21	31.6 µM (inactive)	84.3 µM (inactive)	> 100 µM (inactive)	> 100 µM (inactive)	> 100 µM (inactive)	> 100 µM (inactive)	> 100 µM (inactive)	> 100 µM (inactive)	> 100 µM (inactive)		> 100 µM (inactive)	89.3 µM (inactive)	41.6 µM (inactive)	> 100 µM (inactive)	13.5 µM (inactive)	> 100 µM (inactive)	> 100 µM (inactive)	> 100 µM (inactive)	> 100 µM (inactive)	
Cc1oc2nc(N(C)C)n3c(C)nnc3c2c1C	> 100 µM (inactive)		> 100 µM (inactive)	> 100 µM (inactive)	> 100 µM (inactive)	> 100 µM (inactive)	> 100 µM (inactive)	> 100 µM (inactive)	> 100 µM (inactive)		> 100 µM (inactive)			> 100 µM (inactive)	> 100 µM (inactive)	> 100 µM (inactive)	> 100 µM (inactive)	> 100 µM (inactive)		> 100 µM (inactive)
CN(C)C(CN)CC1=C(CC(CN)N(C)C)CCC1 (stereo not drawn)	> 100 µM (inactive)	> 100 µM (inactive)	> 100 µM (inactive)	> 100 µM (inactive)	> 100 µM (inactive)	> 100 µM (inactive)	> 100 µM (inactive)	> 100 µM (inactive)		> 100 µM (inactive)		> 100 µM (inactive)	> 100 µM (inactive)	> 100 µM (inactive)	> 100 µM (inactive)	> 100 µM (inactive)	> 100 µM (inactive)			
Cc1cc2c(c3c1c1ccccc1n3C)C(=O)c1ccccc1C2=O	53.6 µM (inactive)	> 100 µM (inactive)	> 100 µM (inactive)	> 100 µM (inactive)	> 100 µM (inactive)	> 100 µM (inactive)	> 100 µM (inactive)	> 100 µM (inactive)	> 100 µM (inactive)	> 100 µM (inactive)	> 100 µM (inactive)	> 100 µM (inactive)	39.3 µM (inactive)	> 100 µM (inactive)	> 100 µM (inactive)					
COC(=O)CN1CCN(c2cccc3c2CCCC3)CC1	44.5 µM (inactive)	24.5 µM (inactive)	43.5 µM (inactive)	66.2 µM (inactive)	> 100 µM (inactive)	48.9 µM (inactive)	29.2 µM (inactive)		36.2 µM (inactive)	> 100 µM (inactive)	19.4 µM (inactive)	46.8 µM (inactive)	35.2 µM (inactive)	> 100 µM (inactive)	52.8 µM (inactive)	24.5 µM (inactive)	37 µM (inactive)		> 100 µM (inactive)	
COc1cc2c(cc1OC)C(Cc1c3ccccc3cc3ccccc13)N(C)CC2 (stereo not drawn)	16 µM (inactive)		18 µM (inactive)	25.6 µM (inactive)	10.5 µM (inactive)	13.5 µM (inactive)	11.2 µM (inactive)	29 µM (inactive)		17.6 µM (inactive)		20 µM (inactive)	10.4 µM (inactive)	19.5 µM (inactive)	30.7 µM (inactive)	24.7 µM (inactive)	13.7 µM (inactive)			
O=c1[nH]c(=O)n(C2OC(CO)C(O)C2O)cc1Oc1ccccc1 (stereo not drawn)	> 100 µM (inactive)	> 100 µM (inactive)	> 100 µM (inactive)	> 100 µM (inactive)	> 100 µM (inactive)	> 100 µM (inactive)	> 100 µM (inactive)	> 100 µM (inactive)	> 100 µM (inactive)	> 100 µM (inactive)	> 100 µM (inactive)	> 100 µM (inactive)	> 100 µM (inactive)	> 100 µM (inactive)	> 100 µM (inactive)	> 100 µM (inactive)	> 100 µM (inactive)	> 100 µM (inactive)	> 100 µM (inactive)	
C#Cc1cc(CN(CC(=O)OC(C)(C)C)CC(=O)OC(C)(C)C)nc(CN(CC(=O)OC(C)(C)C)CC(=O)OC(C)(C)C)c1	2.62 µM (inactive)	4.17 µM (inactive)	2.37 µM (inactive)	11.9 µM (inactive)	2.84 µM (inactive)	21.6 µM (inactive)	7.36 µM (inactive)	4.8 µM (inactive)	7.06 µM (inactive)	2.28 µM (inactive)	5.89 µM (inactive)	7.23 µM (inactive)	2.98 µM (inactive)	15.2 µM (inactive)	6.19 µM (inactive)					
